In patent publication US20060293381A1, “Fungicidal effect by regulating signal transduction pathways” (priority 2005, published 2006):
“Also recorded” adds a separate entry of the source. Like-named read-outs stand apart in the source and are kept apart here.

Columns and labels:
C. neoformans [1] = format: cell-based, Cryptococcus neoformans
Description: (§1) FIG. 1: [A] Treatment of multiple strains of C. neoformans serotype A H99 with fludioxonil (1 ug ml^−1 and 10 ug ml^−1), calcineurin inhibitor FK506, and FK506+Fludioxonil (1 ug ml^−1). [B] Measurement of cell density of multiple strains of C. neoformans representing relative cell growth after incubation of C. neoformans in culture for 72 hours in various fludioxonil concentrations. The following serotype A strains were used for this assay: WT (H99) (♦), and cna1Δ (▴), hog1Δ (□) and cna1Δ hog1Δ (∘) mutant strains. [C] Measurement of WT H99, hog1Δ, and cna1Δ mutants grown for 48 hours exposed to disks containing 10 ug (Fludiox10), 50 ug (Fludiox50), or 100 ug (Fludiox100) of fludioxonil; 2 ug (FK5062) or 20 ug (FK50620) of FK506; 5 ul of 100% ethanol (ETOH) and dimethyl sulfoxide (DMSO).
Additionally, the fractional inhibitory concentration (FIC) was calculated to determine the FIC index, of which a value <1·0 denotes a synergistic interaction.

S. cerevisiae = assay: Fungal growth on agar containing fludioxonil (control species); format: cell-based
Description: FIG. 2: Differential fungicidal sensitivity between C. neoformans serotype A strain H99 and serotype D strain JEC21. WT indicates wildtype cells; hog1 indicates a mutant Hog1 gene hog1Δ. S. cerevisiae is used as a control.
(§2) Two C. neoformans serotypes were tested for sensitivity to fludioxonil at 1 μg/ml and 10 μg/ml to determine whether fludioxonil sensitivity is differentially regulated between the two strains and if it is controlled by the HOG pathway. […] S. cerevisiae is resistant to fludioxonil and was used as a control. Thus differential sensitivity to fludioxonil was seen between the two WT serotypes. The hog1Δ mutation in the serotype D strain JEC21 was resistant to fludioxonil, similar to WT JEC21 (FIG. 2). The hog1Δ mutation in the serotype A strain H99 background, however, was resistant to fludioxonil, unlike WT H99 (FIG. 2). This indicates a critical role for the Hog1 pathway in fludioxonil sensitivity.

C. neoformans [2] = assay: NCCLS drug susceptibility assay in liquid medium (MIC80, FIC index, cell density); format: cell-based, Cryptococcus neoformans
Description: as §1
To quantitatively measure fludioxonil sensitivity, we performed drug susceptibility assays according to NCCLS criteria using a range of fludioxonil concentrations (5 ng ml^−1 to 10 ug ml^−1) to determine the minimum inhibitory concentration (MIC). In this assay, the MIC80 of fludioxonil for the WT strain was <5 ug ml^−1 whereas the MIC80 for the cna1Δ mutant was <100 ng ml^−1 (FIG. 1B and Table 1).

Hog1 MAPK = assay: Hog1 phosphorylation pattern by Western Blot; format: cell-based, Cryptococcus neoformans
From the text: (§3) FIG. 3: Measurements of Hog1 MAPK activation by rapid dephosphorylation in response to fludioxonil in C. neoformans. Measurements of phosphorylated Hog1 (P-Hog1) and unphosphorylated Hog1 (Hog1) are shown in C. neoformans serotype A strain H99 (H99 WT), H99 cna1Δ, serotype D strain JEC21 (JEC21 WT), and S. cerevisiae. The dual phosphorylation status of Hog1 (T171 and Y173) was monitored using antibody specific for dual phosphorylation of p38 MAPK (P-Hog1). The same blot was stripped and then probed with polyclonal anti-Hog1 antibody as a loading control (Hog1).
FIG. 4: Measurements of fludioxonil sensitivity and Hog1 phosphorylation patterns in response to fludioxonil in various clinical and environmental serotype A [A] and serotype D [B] isolates. Measurements of phosphorylated Hog1 (P-Hog1) and unphosphorylated Hog1 (Hog1) were done using Western Blot analysis.
(§4) To determine how Hog1 is regulated in response to fludioxonil in C. neoformans, Hog1 phosphorylation patterns were monitored by Western Blot analysis in response to fludioxonil. When the serotype A strain H99 was exposed to 1 or 10 ug ml^−1 fludioxonil ml^−1, Hog1 was dephosphorylated within 15 minutes and its dephosphorylation status was maintained for 3 hours (FIG. 3). […] On the other hand, in the serotype D strain JEC21 Hog1 was only slightly phosphorylated under normal conditions, only minimally further phosphorylated if at all after 15 minutes of exposure to fludioxonil, and subsequently maintained in an unphosphorylated state for up to 3 hours (FIG. 3). In contrast, Hog1 was rapidly phosphorylated in response to osmotic shock in strain JEC21.

C. neoformans [3] = assay: Microscopic observation of cell morphology after fludioxonil; format: cell-based, Cryptococcus neoformans
Description: (§5) FIG. 6: [A] Measurements of morphological changes in response to fludioxonil treatment (10 ug ml^−1 for 48 hours) in serotype A H99 WT [A-b], cna1Δ [A-c], and hog1Δ [A-d]. As a control, serotype A H99 WT was grown without fludioxonil [A-a]. Cells were then observed by microscopy (bar=20 um). [B] Measurements of glycerol content in cell extracts in response to fludioxonil treatment in serotype A WT strain H99, cna1Δ, hog1Δ, and the serotype D WT strain JEC21. Cells were grown to mid-exponential phase and then incubated in 10 ug fludioxonil ml^−1 for the time indicated. Glycerol content in cell extracts was measured by a UV-glycerol assay procedure and normalized to dry cell weight. Two individual experiments were performed and standard deviations are presented as error bars.
We microscopically observed cells after exposure to fludioxonil. […] As expected, the morphology of JEC21 cells was not affected by fludioxonil.

C. neoformans [4] = assay: Minimal fungicidal concentration (MFC), NCCLS criteria; format: cell-based; conditions: Cryptococcus neoformans; WT strain; fludioxonil alone
From the text: To determine whether fludioxonil is fungicidal or fungistatic to C. neoformans, minimal fungicidal concentrations (MFCs) were investigated in accordance with the NCCLS criteria (Table 2).

C. neoformans [5] = assay: Glycerol content in cell extracts (UV-glycerol assay); format: cell-based, Cryptococcus neoformans
Description: as §5
We measured the glycerol content in C. neoformans after fludioxonil treatment for 1 and 3 hours (FIG. 6B). […] Increased intracellular glycerol levels may trigger non-physiological levels of water influx into the cell, resulting in cell swelling and growth inhibition. […] Alternatively, the cna1Δ mutant cells could be rapidly killed by Hog1 activation prior to accumulating glycerol, because fludioxonil has a fungicidal effect on the cna1Δ mutant (Table 1).

C. neoformans [6] = assay: Fungal growth on YPD agar containing the drug; format: cell-based, Cryptococcus neoformans
Description: To investigate whether C. neoformans is sensitive to fludioxonil, fungal growth was tested on YPD agar containing the drug. […] To elucidate the role of the HOG pathway in fludioxonil sensitivity, we tested the sensitivity of hog1Δ and pbs2Δ mutants that had been constructed before (Y S Bahn et al., Mol. Biol. Cell. (2005) 16: 2285-2300). […] To examine whether phosphorylation and kinase activity of Hog1 MAPK are required to confer fludioxonil sensitivity, we tested the sensitivity of cells expressing site-directed mutants of Hog1 at the phosphorylation sites (hog1+HOG1^T171A+Y173A) or the catalytic site (hog1+HOG1^K49S+K50N) (FIG. 1A).
as §2
To determine whether the differential fludioxonil sensitivity observed between the serotype A strain H99 and the serotype D strain JEC21 results from serotype- or strain-specific differences, fludioxonil sensitivity in multiple serotype A and D clinical and environmental strains was investigated. The Hog1 phosphorylation pattern after a 1 hour exposure to fludioxonil was monitored.

Hog1 = Hog1 phosphorylation pattern by Western Blot; format: cell-based; conditions: S. cerevisiae
From the text: as §3, §4

[7] = WT strain H99, fludioxonil disk 100 ug
[8] = serotype A strain H99, 1 or 10 ug ml^−1 fludioxonil

## C=CC[C@@H]1/C=C(\C)C[C@H](C)C[C@H](OC)[C@H]2O[C@@](O)(C(=O)C(=O)N3CCCC[C@H]3C(=O)O[C@H](/C(C)=C/[C@@H]3CC[C@@H](O)[C@H](OC)C3)[C@H](C)[C@@H](O)CC1=O)[C@H](C)C[C@@H]2OC [FK506]
C. neoformans [1]; [7]
  halo / growth inhibition around disk: not inhibited

## N#Cc1c[nH]cc1-c1cccc2c1OC(F)(F)O2 [fludioxonil, 4-(2,2-difluoro-1,3-benzodioxol-4-yl)pyrrole-3-carbonitrile]
S. cerevisiae
  growth on agar containing drug: resistant
C. neoformans [1]; [7]
  halo / growth inhibition around disk: only modest growth inhibition
C. neoformans [1]; cna1Δ strain, disks with 10, 50, or 100 ug fludioxonil
  halo / growth inhibition around disk: large haloes
C. neoformans [2]; Cryptococcus neoformans, WT strain, read-out: MIC80
  MIC80: < 5 µg/mL
C. neoformans [2]; cna1Δ hog1Δ double mutant
  fludioxonil sensitivity (cell growth, FIG. 1B): complete resistance
C. neoformans [2]; cna1Δ mutant
  MIC80: < 0.1 µg/mL
C. neoformans [2]; hog1Δ and cna1Δ hog1Δ mutants, even with 10 ug fludioxonil ml^−1
  growth in liquid culture: modest reduction of growth, but still showed robust resistance
Hog1 MAPK; cna1Δ mutant, 1 ug or 10 ug fludioxonil ml^−1
  Hog1 phosphorylation pattern: almost identical to that observed in the wild-type strain
Hog1 MAPK; resistant clinical/environmental strains, 1 hour incubation
  Hog1 activation in response to fludioxonil: not activated
Hog1 MAPK; [8]
  Hog1 dephosphorylation status maintained: 3 h
  time to Hog1 dephosphorylation: ≤ 15 min
Hog1 MAPK; serotype D strain JEC21
  Hog1 activation in response to fludioxonil: only minimally activated, if at all
C. neoformans [3]; JEC21 cells
  cell morphology: not affected
C. neoformans [3]; WT H99, 10 ug ml^−1 for 48 hours
  cell morphology: some cells were swollen, and interestingly were often attached to each other
C. neoformans [3]; cna1Δ mutant, 10 ug ml^−1 for 48 hours
  cell morphology: even more severe cytokinesis defect
C. neoformans [3]; hog1Δ mutant, 10 ug ml^−1 for 48 hours
  cell morphology: no swollen morphology or defects in cell division
C. neoformans [4]
  MFC: > 10 µg/mL
C. neoformans [5]; WT strain H99, 10 ug fludioxonil ml^−1, 1 and 3 hours
  glycerol content: increased after 1 hour exposure, and to an even greater extent after 3 hour incubation
C. neoformans [5]; cna1Δ mutant, 10 ug fludioxonil ml^−1, 1 and 3 hours
  glycerol content: increased following 1 hour treatment with fludioxonil but accumulation levels at 3 hours were lower than those of the WT
C. neoformans [5]; hog1Δ mutant, 10 ug fludioxonil ml^−1, 1 and 3 hours
  glycerol content: no increase in glycerol
C. neoformans [5]; serotype D strain JEC21, 10 ug fludioxonil ml^−1
  glycerol content: little or no glycerol
C. neoformans [6]; 12 independently derived AD hybrid strains
  fludioxonil sensitivity: resistance similar to the parental strain JEC171
C. neoformans [6]; WT serotype D strain JEC21, 1 μg/ml and 10 μg/ml
  growth on agar containing drug: complete resistance
C. neoformans [6]; cna1Δ and cnb1Δ mutants (H99 background)
  growth on agar containing drug: hypersensitivity
C. neoformans [6]; hog1+HOG1^T171A+Y173A and hog1+HOG1^K49S+K50N site-directed mutants
  growth on agar containing drug: as resistant to fludioxonil as the hog1Δ mutant
C. neoformans [6]; hog1Δ mutant (H99 background)
  growth on agar containing drug: complete resistance; also recorded: resistant
C. neoformans [6]; hog1Δ mutation in serotype D strain JEC21
  growth on agar containing drug: resistant
C. neoformans [6]; mpk1Δ mutant
  fludioxonil sensitivity: hypersensitivity
C. neoformans [6]; mpk1Δ, mkk1Δ, bck1Δ mutants, supplementation with 1M sorbitol
  growth defect in response to fludioxonil with osmotic stabilizer: partially rescued the growth defect
C. neoformans [6]; mutants lacking MKK1 and BCK1 genes
  fludioxonil sensitivity: hypersensitivity
C. neoformans [6]; parental serotype A H99 (ura5)
  fludioxonil sensitivity: sensitivity
C. neoformans [6]; parental serotype D JEC171 (ade2 lys2)
  fludioxonil sensitivity: resistance
C. neoformans [6]; pbs2Δ mutant (H99 background)
  growth on agar containing drug: complete resistance
C. neoformans [6]; serotype A clinical and environmental strains
  strains sensitive to fludioxonil: 8 of 10
C. neoformans [6]; serotype A strains IN-38 and UG-20020, serotype D strains NIH433, JEC21, MMRL757
  fludioxonil sensitivity: clear resistance
C. neoformans [6]; serotype A wild-type (WT) strain H99, fludioxonil 1 and 10 ug ml^−1
  growth on agar containing drug: severely inhibited growth; also recorded: sensitivity
C. neoformans [6]; serotype D clinical and environmental strains
  strains sensitive to fludioxonil: 6 of 9
Hog1
  Hog1 activation in response to fludioxonil: completely inactive
